Columns and labels:
Type in all cases: cell-based
[1] = system: mouse colorectal cancer cell line CT26.WT; test: ICD induction evaluation (in vitro): Calreticulin (CRT) on cell surface by flow cytometry; conditions: CT26.WT after 24 hours; compound (A) 4 μM, MTX 1 μM; adjusted MFI
Method: In cancer cells treated with different compounds, the expression level of Calreticulin (CRT), which serves as an index of Immunogenic cell death (ICD), was measured. Cells of mouse colorectal cancer cell line CT26.WT were seeded in a 6-well plate and cultured overnight. After the supernatant was removed, the cells were washed twice with PBS. In RPMI1640 culture solution containing 10% FBS (R10), compound (A), (4 μM) or Mitoxantrone (MTX) (1 μM) was added. As a control, DMSO was added in the same amount as that of compound (A) (R10-DMSO). After completion of drug treatment, CT26.WT cells were collected and suspended in PBS, and then, seeded in a 96-well (round bottom) plate at 1×10^6 cells/well. […] The expression level of CRT on the cancer cells was measured by flow cytometry (FACS CantoII: manufactured by Becton, Dickinson and Company). Data were analyzed by FlowJo (manufactured by TreeStar Inc). Note that, LIVE/DEAD Fixable Violet-positive cells were determined as dead cells and excluded from the analysis. The mean fluorescence intensity (MFI) of CRT was calculated. The value, which was obtained by subtracting the MFI of the cells treated with Isotype control from the MFI of stained cells, was determined as the adjusted MFI. […] The results satisfying P<0.05 (two-sided test) were determined as being significant (***: P<0.001, **: P<0.01).

[2] = system: mouse colorectal cancer cell line CT26.WT; test: ICD induction evaluation (in vitro): HMGB1 in culture supernatant (ELISA); conditions: for release of HMGB1, maximum, relative to control: CT26.WT culture supernatant after 24 hours, MTX 0.4-6 μM vs control (0 μM), compound (A) 1-16 μM vs R10 or R10-DMSO; for HMGB1 released in the culture supernatant (confirmation of ICD induction): Example 3, CT26.WT, compound (A) 4 μM or MTX 1 μM, 24 hours
Method: In cancer cells treated with different compounds, the ATP level, and the expression level of HMGB1, which serve as an index of Immunogenic cell death (ICD), were measured. Cells of mouse colorectal cancer cell line CT26.WT were seeded in a 6-well plate and cultured overnight. After the supernatant was removed, the cells were washed twice with PBS. Compound (A) was dissolved in RPMI1640 culture solution containing 10% FBS (R10) to prepare solutions having a final concentration of 0, 1, 4 and 16 μM. As a positive control, Mitoxantrone (MTX) was dissolved in DMSO and added at a final concentration of 0.4, 1.5 and 6 μM. To the control (0 μM) herein, DMSO was added in the same amount as that of compound (A) (R10-DMSO). Twenty four hours later, the culture supernatant was collected, and the levels of ATP and HMGB1 were measured. The level of ATP was measured by adding the culture supernatant in a 96-well white plate, adding the same amount of Back titer-Glo (manufactured by Promega Corporation) and determining the amount of luminescence by a plate reader. The level of HMGB1 was detected by a HMGB1 ELISA-kit (manufactured by Shino-Test Corporation) in accordance with the Sandwich ELISA method. In the plate provided in the kit, a test buffer was added, and thereafter, an HMGB1 standard solution diluted with the test buffer and the culture supernatant were added thereto. It was allowed to stand at 37° C. for 24 hours. After the supernatant was removed and the cells were washed five times with PBS/Tween 20 (200 μL/well), a secondary-antibody solution provided in the kit was added in an amount of 100 μL/well. It was allowed to stand at room temperature for 2 hours. After the supernatant was removed, the cells were washed five times with PBS/Tween 20 (200 μL/well). Thereafter, a color-producing solution provided in the kit was added in an amount of 100 μL/well. The plate was allowed to stand at room temperature for 30 minutes. A stop solution (100 μL/well) was added and stirred. The absorbance at 405 nm was measured by a plate reader. The results of the control group and compound (A) group were compared in accordance with the Dunnett's test. P value was expressed to four decimal places. The results satisfying P<0.05 (two-sided test) were determined as being significant.
Cells of mouse colorectal cancer cell line CT26.WT were seeded in a cell-culture flask and cultured overnight. The supernatant was removed and the cells were washed twice with PBS. To induce ICD, compound (A) (4 μM) or MTX (1 μM) was added in a RPMI1640 culture solution containing 10% FBS (R10). Twenty four hours later, HMGB1 in the culture supernatant was measured in accordance with the method shown in Example 1 in order to confirm ICD induction.

[3] = system: mouse colorectal cancer cell line CT26.WT; test: ICD induction evaluation (in vitro): ATP in culture supernatant; conditions: CT26.WT culture supernatant after 24 hours; MTX 0.4-6 μM vs control (0 μM); compound (A) 1-16 μM vs R10 or R10-DMSO
Method: In cancer cells treated with different compounds, the ATP level, and the expression level of HMGB1, which serve as an index of Immunogenic cell death (ICD), were measured. Cells of mouse colorectal cancer cell line CT26.WT were seeded in a 6-well plate and cultured overnight. After the supernatant was removed, the cells were washed twice with PBS. Compound (A) was dissolved in RPMI1640 culture solution containing 10% FBS (R10) to prepare solutions having a final concentration of 0, 1, 4 and 16 μM. As a positive control, Mitoxantrone (MTX) was dissolved in DMSO and added at a final concentration of 0.4, 1.5 and 6 μM. To the control (0 μM) herein, DMSO was added in the same amount as that of compound (A) (R10-DMSO). Twenty four hours later, the culture supernatant was collected, and the levels of ATP and HMGB1 were measured. The level of ATP was measured by adding the culture supernatant in a 96-well white plate, adding the same amount of Back titer-Glo (manufactured by Promega Corporation) and determining the amount of luminescence by a plate reader. The level of HMGB1 was detected by a HMGB1 ELISA-kit (manufactured by Shino-Test Corporation) in accordance with the Sandwich ELISA method. […] The absorbance at 405 nm was measured by a plate reader. […] The results satisfying P<0.05 (two-sided test) were determined as being significant.

Row | Structure (SMILES) | CRT expression on cell surface relative to control group [1] | release of HMGB1, maximum, relative to control [2] | HMGB1 released in the culture supernatant (confirmation of ICD induction) [2] | release of ATP, maximum, relative to control [3]
1 | O=C1c2c(O)ccc(O)c2C(=O)c2c(NCCNCCO)ccc(NCCNCCO)c21 [MTX, Mitoxantrone, reference compound] | about 2.6 times | about 3 times | released | about 4 times
2 | CC[C@@]1(O)C(=O)OCc2c1cc1n(c2=O)Cc2c-1nc1cc(F)c(C)c3c1c2[C@@H](NC(=O)CO)CC3 [compound (A)] | about 12.7 times | about 4.6 times | released | about 4.6 times
